According to article PMC10813692 (2024):
Each block holds one compound with its values, some of them ahead of it.

How the values were obtained:
[1] = test system: LxB1 (RNA, aptamer) GGGCAACUCCAAGCUAGAUCUACCGGUGUGUAACGGAAGCACAAAGGUGCCUCCUACAGCAGGUCUUCUACUGGCUUCUACUGAUACACUAAAAUGGCUAGCAAAGGAGAAGAACUUUUCACU; test: elution from immobilised Capture-ON; details: 0.25 mM K+, 20 mM Na+, 5 mM Mg2+, 1x CSB (40 mM HEPES pH 7.4), DNA Capture-ON displaced
[2] = test system: M14 (RNA, aptamer) GGGCGCACUGAAUGCCGCGUAGGCUUCGCUACUGGCUUCUACUACGUAUAGUGCGCCC; test: ITC; details: 0.25 mM K+, 20 mM Na+, 5 mM Mg2+; 1x CSB (40 mM HEPES pH 7.4), 25 °C; 30 µM RNA, 500 µM LFX in syringe
[3] = test system: M6 (RNA, aptamer) GGGUUUGGGUAGCGAUUCGCUGAAUGCCGCGUAGGCUUCGCUACUGGCUUCUACUACGUACCCAAACCC; test: ITC; details: 0.25 mM K+, 20 mM Na+, 5 mM Mg2+; 1x CSB (40 mM HEPES pH 7.4), 25 °C; 30 µM RNA, 500 µM LFX in syringe
[4] = test system: LxF (RNA, aptamer) GGGCAACUCCAAGCUAGAUCUACCGGUGCAGGUCUGGGAACUCGUUCCCGGCUCCAGCUGGAUUCUUCUACUGGCUUCUAGCCCGACCGGAAAAUGGCUAGCAAAGGAGAAGAACUUUUCACU; test: elution from immobilised Capture-ON; details: 0.25 mM K+, 20 mM Na+, 5 mM Mg2+; 1x CSB (40 mM HEPES pH 7.4); 1 mM LFX; DNA Capture-ON displaced
[5] = test system: M2 (RNA, aptamer) GGGUUUGCGUAGUGCGAUUCGCACUGAAUGCCGCGUAGGCUUCGCUACUGGCUUCUACUACGUACGCAAACCC; test: ITC; details: 0.25 mM K+, 20 mM Na+, 5 mM Mg2+; 1x CSB (40 mM HEPES pH 7.4), 25 °C; 30 µM RNA, 500 µM LFX; one-site model
[6] = test system: LxB2 (RNA, aptamer) GGGCAACUCCAAGCUAGAUCUACCGGUGUGUAACGGAAGCACAAAGGUGCCUCCUACAGCAGGUCUUCUACUGGCUUCUACUGAUACGCUAAAAUGGCUAGCAAAGGAGAAGAACUUUUCACU; test: elution from immobilised Capture-ON; details: 0.25 mM K+, 20 mM Na+, 5 mM Mg2+, 1x CSB (40 mM HEPES pH 7.4), DNA Capture-ON displaced
[7] = test system: LxE (RNA, aptamer) GGGCAACUCCAAGCUAGAUCUACCGGUCGUAGUGGACCUGUUUAGGUUUGCAUACGUUAGAUGUCUUCUACUGGCUUCUAAAUCGAACCGAAAAUGGCUAGCAAAGGAGAAGAACUUUUCACU; test: elution from immobilised Capture-ON; details: 0.25 mM K+, 20 mM Na+, 5 mM Mg2+; 1x CSB (40 mM HEPES pH 7.4); 1 mM LFX; DNA Capture-ON displaced
[8] = test system: M11 (RNA, aptamer) GGGUUUGGGUAGUGCGAUUCGCACUGAAUGCUUCGGCUUCUACUACGUACCCAAACCC; test: ITC; details: 0.25 mM K+, 20 mM Na+, 5 mM Mg2+; 1x CSB (40 mM HEPES pH 7.4), 25 °C; 30 µM RNA, 500 µM LFX in syringe
[9] = test system: M7 (RNA, aptamer) GGGUUUGGGUAUGAAUGCCGCGUAGGCUUCGCUACUGGCUUCUACUACGUACCCAAACCC; test: ITC; details: 0.25 mM K+, 20 mM Na+, 5 mM Mg2+; 1x CSB (40 mM HEPES pH 7.4), 25 °C; 30 µM RNA, 500 µM LFX in syringe
[10] = test system: M12 (RNA, aptamer) GGGUUUGGGUGAAUGCCGCGUAGGCUUCGCUACUGGCUUCUACUACGUACCCAAACCC; test: ITC; details: 0.25 mM K+, 20 mM Na+, 5 mM Mg2+; 1x CSB (40 mM HEPES pH 7.4), 25 °C; 30 µM RNA, 500 µM LFX in syringe
[11] = test system: LxCsh (RNA, aptamer) GGGUUUGGGUAGUGCGAUUCGCACUGAAUGCCGCGUAGGCUUCGCUACUGGCUUCUACUACGUACCCAAACCC; test: ITC; details: 0.25 mM K+, 20 mM Na+, 5 mM Mg2+; 1x CSB (40 mM HEPES pH 7.4), 25 °C; 30 µM RNA, 500 µM LFX; one-site model
[12] = test system: M1 (RNA, aptamer) GGGUAUGGGUAGUGCGAUUCGCACUGAAUGCCGCGUAGGCUUCGCUACUGGCUUCUACUACGUACCCAUACCC; test: ITC; details: 0.25 mM K+, 20 mM Na+, 5 mM Mg2+; 1x CSB (40 mM HEPES pH 7.4), 25 °C; 30 µM RNA, 500 µM LFX; one-site model
[13] = test system: LxC (RNA, aptamer) GGGCAACUCCAAGCUAGAUCUACCGGUUUGGGUAGUGCGAUUCGCACUGAAUGCCGCGUAGGCUUCGCUACUGGCUUCUACUACGUACCCAAAAUGGCUAGCAAAGGAGAAGAACUUUUCACU; test: ITC; details: 0.25 mM K+, 20 mM Na+, 5 mM Mg2+; 1x CSB (40 mM HEPES pH 7.4), 25 °C; 30 µM RNA, 500 µM LFX; one-site model
[14] = test system: M5 (RNA, aptamer) GGGUUUGGGUAGUUUCGACUGAAUGCCGCGUAGGCUUCGCUACUGGCUUCUACUACGUACCCAAACCC; test: ITC; details: 0.25 mM K+, 20 mM Na+, 5 mM Mg2+; 1x CSB (40 mM HEPES pH 7.4), 25 °C; 30 µM RNA, 500 µM LFX in syringe
[15] = test system: LxC (RNA, aptamer) GGGCAACUCCAAGCUAGAUCUACCGGUUUGGGUAGUGCGAUUCGCACUGAAUGCCGCGUAGGCUUCGCUACUGGCUUCUACUACGUACCCAAAAUGGCUAGCAAAGGAGAAGAACUUUUCACU; test: elution from immobilised Capture-ON; details: 0.25 mM K+, 20 mM Na+, 5 mM Mg2+, 1x CSB (40 mM HEPES pH 7.4), DNA Capture-ON displaced
[16] = test system: M8 (RNA, aptamer) GGGUUUGGGUAGUCGAUUCGACUGAAUGCCGCGUAGGCUUCGCUACUGGCUUCUACUACGUACCCAAACCC; test: ITC; details: 0.25 mM K+, 20 mM Na+, 5 mM Mg2+; 1x CSB (40 mM HEPES pH 7.4), 25 °C; 30 µM RNA, 500 µM LFX; one-site model
[17] = test system: M9 (RNA, aptamer) GGGUUUGGGUAGUCGUUCGCGACUGAAUGCCGCGUAGGCUUCGCUACUGGCUUCUACUACGUACCCAAACCC; test: ITC; details: 0.25 mM K+, 20 mM Na+, 5 mM Mg2+; 1x CSB (40 mM HEPES pH 7.4), 25 °C; 30 µM RNA, 500 µM LFX; one-site model
[18] = test system: M3 (RNA, aptamer) GGGUUUGGGUAGUGCGAUUCGCACUGAAGCCGCGUAGGCUUCGCUACUGGCUUCUACUACGUACCCAAACCC; test: ITC; details: 0.25 mM K+, 20 mM Na+, 5 mM Mg2+; 1x CSB (40 mM HEPES pH 7.4), 25 °C; 30 µM RNA, 500 µM LFX in syringe
[19] = test system: LxA2 (RNA, aptamer) GGGCAACUCCAAGCUAGAUCUACCGGUUUUUUCUGGCGGCUUAAAAACCAGGAAAGGUGGAGACUUCUACUGGCUUCUAUCCAGCCGGUAAAAUGGCUAGCAAAGGAGAAGAACUUUUCACU; test: elution from immobilised Capture-ON; details: 0.25 mM K+, 20 mM Na+, 5 mM Mg2+; 1x CSB (40 mM HEPES pH 7.4); 1 mM LFX; DNA Capture-ON displaced
[20] = test system: M4 (RNA, aptamer) GGGUUUGGGUAGUGCGAUUCGCACUGAAUGCCGGUAGGCUUCGCUACUGGCUUCUACUACGUACCCAAACCC; test: ITC; details: 0.25 mM K+, 20 mM Na+, 5 mM Mg2+; 1x CSB (40 mM HEPES pH 7.4), 25 °C; 30 µM RNA, 500 µM LFX in syringe
[21] = test system: LxCsh (RNA, aptamer) GGGUUUGGGUAGUGCGAUUCGCACUGAAUGCCGCGUAGGCUUCGCUACUGGCUUCUACUACGUACCCAAACCC; test: lateral flow assay, Capture-ON displacement; details: 0.25 mM K+, 20 mM Na+, 5 mM Mg2+, 1x CSB (40 mM HEPES pH 7.4), room temperature, 6FAM Capture-ON displaced
[22] = test system: M10 (RNA, aptamer) GGGUUUGGGUAGUGCGAUUCGCACUGAAUGCCGCGUAGUUCGCUACUGGCUUCUACUACGUACCCAAACCC; test: ITC; details: 0.25 mM K+, 20 mM Na+, 5 mM Mg2+; 1x CSB (40 mM HEPES pH 7.4), 25 °C; 30 µM RNA, 500 µM LFX in syringe
[23] = test system: LxA1 (RNA, aptamer) GGGCAACUCCAAGCUAGAUCUACCGGUUUUUUCAGGCGGCUUAAAAACCAGGAAAGGUGGAGACUUCUACUGGCUUCUAUCCAGCCGGUAAAAUGGCUAGCAAAGGAGAAGAACUUUUCACU; test: elution from immobilised Capture-ON; details: 0.25 mM K+, 20 mM Na+, 5 mM Mg2+; 1x CSB (40 mM HEPES pH 7.4); 1 mM LFX; DNA Capture-ON displaced
[24] = test system: LxD (RNA, aptamer) GGGCAACUCCAAGCUAGAUCUACCGGUCUAGUGCCUCAACUAGCCGAACCGUGGUCGUCUUCAUGCCUACUGGCUUCUACGAGAUAAAUAAAAUGGCUAGCAAAGGAGAAGAACUUUUCACU; test: elution from immobilised Capture-ON; details: 0.25 mM K+, 20 mM Na+, 5 mM Mg2+, 1x CSB (40 mM HEPES pH 7.4), DNA Capture-ON displaced
[25] = test system: M13 (RNA, aptamer) GGGUUUGGGUAGAAUGCCGCGUAGGCUUCGCUACUGGCUUCUACUACGUACCCAAACCC; test: ITC; details: 0.25 mM K+, 20 mM Na+, 5 mM Mg2+; 1x CSB (40 mM HEPES pH 7.4), 25 °C; 30 µM RNA, 500 µM LFX in syringe

binding ([1]; 1 mM LFX): yes
binding [2]: no
binding [3]: no
binding [4]: yes
Kd [5]: 4 ± 1 µM
binding ([6]; 1 mM LFX): yes
binding [7]: yes
binding [8]: no
binding [9]: no
binding [10]: no
Kd [11]: 6 µM
Kd [12]: 5 ± 6 µM
Kd [13]: 6 µM
binding [14]: no
fraction eluted ([15]; 1 mM LFX): 27.4%
Kd [16]: 6 ± 3 µM
Kd [17]: 3 ± 3 µM
binding [18]: no
binding [19]: yes
binding [20]: no
binding ([21]; signal at 100 µM and above): yes
binding [22]: no
binding [23]: yes
fraction eluted ([24]; 1 mM LFX): 47.3%
binding [25]: no
SMILES: C[C@H]1COc2c(N3CCN(C)CC3)c(F)cc3c(=O)c(C(=O)O)cn1c23

binding ([1]; 1 mM CFX, LFX/CFX elution ratio 2.2): weak
binding ([6]; 1 mM CFX, LFX/CFX elution ratio 2.1): weak
binding ([15]; 1 mM CFX, LFX/CFX elution ratio 3.2): weak
binding ([21]; up to 5000 µM): weak
binding ([24]; 1 mM CFX, LFX/CFX elution ratio 2.6): weak
SMILES: O=C(O)c1cn(C2CC2)c2cc(N3CCNCC3)c(F)cc2c1=O
